Experimental data reported in patent publication US8907106B2, “Process for the resolution of enantiomers by preferential evaporative crystallization” (Universite de Rouen, priority 2009, dated 2014).

Experiment: Solubility of the racemic mixture in methanol
Assay type: physicochemical

difference in solubility of the racemic mixture between 40° C. and 20° C. (40° C. vs 20° C., in absolute value, solvent of Example 2 is methanol): 0.85%
Solubility of the racemic mixture in the methanol at reflux (methanol at reflux): 23%
SMILES: O=C([O-])C(O)c1ccccc1Cl.[Na+] (racemic) [Sodium 2-chloromandelate]
